Here are results for 5 compounds from publication PMC8294803, “A Roadmap to the Structure-Related Metabolism Pathways of Per- and Polyfluoroalkyl Substances in the Early Life Stages of Zebrafish (Danio rerio)” (Environmental Health Perspectives, 2021).

Values joined by “and” are separate entries in the source; they are usually repeats but may differ in a detail not shown here. Identical values can stand only once.

By Kd is commonly meant a measure of binding affinity in units of concentration.

One data set concerns zebrafish embryos. In words: Time courses of carboxamides and PFCA metabolites in zebrafish embryos/larvae. It is filed as in vivo, Danio rerio. To be noted: 24 hpf; zebrafish exposed to 5 μM of 19, 31 and 38 separately; N=20; three replicates. The protocol:
Time courses of carboxamides (19, 31, and 38) and corresponding perfluoroalkyl carboxylic acid (PFCA) metabolites in zebrafish larvae were investigated. The procedure of zebrafish embryo collection was described above. Twenty embryos were randomly assigned into each well of a 24-well plate. Subsequently, 15 wells were dosed with 3mL of each chemical ( 5μM ). […] The exposure medium was prepared fresh and changed each day, and dead larvae were discarded. For each chemical, 3 wells were harvested every 24 h, and the surviving larvae were transferred to three different tubes for further PFAS extraction ( N=12–18 ).
Take `O=C(O)C(F)(F)C(F)(F)C(F)(F)F` [PFBA (12)]: the “Peak intensity in zebrafish” value is 10634213 and 16343253 and 15866316.
The same measure, in the same setting: with `O=C(O)C(F)(F)C(F)(F)C(F)(F)C(F)(F)F` [PFPeA, perfluoropentanoic acid] the figure was 42022849 and 47643542 and 46800668.

The same data set, now with this note: 48 hpf; zebrafish exposed to 5 μM of 19, 31 and 38 separately; N=20; three replicates.
As for `O=C(O)C(F)(F)C(F)(F)C(F)(F)F` [PFBA (12)], the “Peak intensity in zebrafish” value was 25172596 and 26956389 and 28007592.
Same read-out and setting: then `O=C(O)C(F)(F)C(F)(F)C(F)(F)C(F)(F)F` [PFPeA, perfluoropentanoic acid], with 46439212 and 83368187 and 82483907.

Still in this data set, the particulars now being: 72 hpf; zebrafish exposed to 5 μM of 19, 31 and 38 separately; N=20; three replicates.
Regarding `O=C(O)C(F)(F)C(F)(F)C(F)(F)F` [PFBA (12)], the “Peak intensity in zebrafish” value is 26852594 and 32851030 and 26877542.
On the same count and under the same terms, then `O=C(O)C(F)(F)C(F)(F)C(F)(F)C(F)(F)F` [PFPeA, perfluoropentanoic acid], with 149000000 and 148000000 and 143000000.

Staying with this data set, now noted: 96 hpf; zebrafish exposed to 5 μM of 19, 31 and 38 separately; N=20; three replicates.
Take `O=C(O)C(F)(F)C(F)(F)C(F)(F)F` [PFBA (12)]: the “Peak intensity in zebrafish” value was 47637483 and 46740315 and 40653414.
The same measure, in the same setting: with `O=C(O)C(F)(F)C(F)(F)C(F)(F)C(F)(F)F` [PFPeA, perfluoropentanoic acid] the figure was 242000000 and 252000000 and 243000000.

The same data set, now with this note: 120 hpf; zebrafish exposed to 5 μM of 19, 31 and 38 separately; N=20; three replicates.
Regarding `O=C(O)C(F)(F)C(F)(F)C(F)(F)F` [PFBA (12)], the “Peak intensity in zebrafish” value is 68162507 and 69974600 and 72855428.
Still for that read-out and setting: then `O=C(O)C(F)(F)C(F)(F)C(F)(F)C(F)(F)F` [PFPeA, perfluoropentanoic acid], with 224000000 and 215000000 and 223000000.

The subject of a further data set is liver fatty acid binding protein (L-FABP).
Assay: not given
The arrangement: method as in Yang et al. 2020. The note with it: ref Yang et al. 2020; cited from earlier work.
Regarding `C[N+](C)(C)CCCNS(=O)(=O)C(F)(F)C(F)(F)C(F)(F)C(F)(F)C(F)(F)C(F)(F)C(F)(F)C(F)(F)F` [compound 5, Perfluorooctanesulfonamido ammonium iodide], the L-FABP ligand entry is “not identified as L-FABP ligands”.

Still in this data set, the particulars now being: ref Yang et al. 2020; read-out: Kd (μM), L-FABP binding affinity; cited from earlier work.
Turning to `O=C(O)CCC(F)(F)C(F)(F)C(F)(F)C(F)(F)C(F)(F)F` [compound 14, 2H,2H,3H,3H-Perfluorooctanoic acid], the Kd is 158 µM.
As to `O=C(O)C(F)(F)C(F)(F)C(F)(F)C(F)(F)C(F)(F)C(F)(F)C(F)(F)F` [compound 74, Perfluorooctanoic acid], the Kd is 18.7 µM.

For the next data set, the system named is zebrafish embryos.
Assay: not given
The note with it: 5μM through 120 hpf, malformation rate.
For the compound `C[N+](C)(C)CCCNS(=O)(=O)C(F)(F)C(F)(F)C(F)(F)C(F)(F)C(F)(F)C(F)(F)C(F)(F)C(F)(F)F` [compound 5, Perfluorooctanesulfonamido ammonium iodide], the “pericardial oedemata, Mean” value is 0.00%; the “spinal curvature, Mean” value is 1.11%; the “tail dysplasia, Mean” value was 0.00%.
In the case of `O=C(O)CCC(F)(F)C(F)(F)C(F)(F)C(F)(F)C(F)(F)F` [compound 14, 2H,2H,3H,3H-Perfluorooctanoic acid], the “pericardial oedemata, Mean” value is reported as 0.00%; the “spinal curvature, Mean” value is recorded as 0.00%; the “tail dysplasia, Mean” value is given as 1.11%.
Turning to `O=C(O)C(F)(F)C(F)(F)C(F)(F)C(F)(F)C(F)(F)C(F)(F)C(F)(F)F` [compound 74, Perfluorooctanoic acid], the “pericardial oedemata, Mean” value stood at 0.00%; the “spinal curvature, Mean” value is recorded as 0.00%; the “tail dysplasia, Mean” value came out at 0.00%.

Still in this data set, the particulars now being: 5 µM, exposure through 120 hpf.
With `C[N+](C)(C)CCCNS(=O)(=O)C(F)(F)C(F)(F)C(F)(F)C(F)(F)C(F)(F)C(F)(F)C(F)(F)C(F)(F)F` [compound 5, Perfluorooctanesulfonamido ammonium iodide], the “Mortality (%)” value is reported as 2.2%.
Still for that read-out and setting: with `O=C(O)CCC(F)(F)C(F)(F)C(F)(F)C(F)(F)C(F)(F)F` [compound 14, 2H,2H,3H,3H-Perfluorooctanoic acid] the figure was 1.1%; with `O=C(O)C(F)(F)C(F)(F)C(F)(F)C(F)(F)C(F)(F)C(F)(F)C(F)(F)F` [compound 74, Perfluorooctanoic acid], 4.4%.

For another data set, the system named is zebrafish larvae. The data set can be described thus: Bioconcentration factors (BCF) of PFAS in zebrafish larvae. The note with it: zebrafish larvae. The procedure, abridged:
(§1)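 Zebrafish embryos collected within 1 h post-spawning were exposed individually to each PFAS in facility water with DMSO controls, medium renewed every 24 h from 24 to 96 hpf. Live hatched larvae collected at 120 hpf, wet-weighed, extracted with dichloromethane/methanol and analysed by UHPLC–high-resolution MS against mass-labelled standards.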
For the compound `C[N+](C)(C)CCCNS(=O)(=O)C(F)(F)C(F)(F)C(F)(F)C(F)(F)C(F)(F)C(F)(F)C(F)(F)C(F)(F)F` [compound 5, Perfluorooctanesulfonamido ammonium iodide], the “BCF at 0.5μM compared with 5μM” value is listed as “comparable or even higher BCFs at 5μM”.
Still for that read-out and setting: with `O=C(O)CCC(F)(F)C(F)(F)C(F)(F)C(F)(F)C(F)(F)F` [compound 14, 2H,2H,3H,3H-Perfluorooctanoic acid] the entry was “comparable or even higher BCFs at 5μM”.

Staying with this data set, now noted: zebrafish larvae, 0.5 µM exposure, 120 hpf, three replicates.
Take `C[N+](C)(C)CCCNS(=O)(=O)C(F)(F)C(F)(F)C(F)(F)C(F)(F)C(F)(F)C(F)(F)C(F)(F)C(F)(F)F` [compound 5, Perfluorooctanesulfonamido ammonium iodide]: the “BCF 0.5µM” value was determined as 48.14 L/kg.
On to `O=C(O)CCC(F)(F)C(F)(F)C(F)(F)C(F)(F)C(F)(F)F` [compound 14, 2H,2H,3H,3H-Perfluorooctanoic acid], for which the “BCF 0.5µM” value is 6.7299 L/kg.
On the same count and under the same terms, then `O=C(O)C(F)(F)C(F)(F)C(F)(F)C(F)(F)C(F)(F)C(F)(F)C(F)(F)F` [compound 74, Perfluorooctanoic acid], with 31.5419 L/kg.

Still in this data set, the particulars now being: zebrafish larvae, 5 µM exposure, 120 hpf, three replicates.
`C[N+](C)(C)CCCNS(=O)(=O)C(F)(F)C(F)(F)C(F)(F)C(F)(F)C(F)(F)C(F)(F)C(F)(F)C(F)(F)F` [compound 5, Perfluorooctanesulfonamido ammonium iodide]: the “BCF 5µM” value is 56 ± 16 L/kg.
Same read-out and setting: then `O=C(O)CCC(F)(F)C(F)(F)C(F)(F)C(F)(F)C(F)(F)F` [compound 14, 2H,2H,3H,3H-Perfluorooctanoic acid], with 8.7 ± 2.1 L/kg; and `O=C(O)C(F)(F)C(F)(F)C(F)(F)C(F)(F)C(F)(F)C(F)(F)C(F)(F)F` [compound 74, Perfluorooctanoic acid], with 17 ± 3.2 L/kg.

Tested on in a further data set: not listed separately
The data set is described as above. The note with it: zebrafish (Danio rerio), whole larvae, other: immersion in exposure medium, 5 µM. The procedure, abridged: as §1
Take `O=C(O)C(F)(F)C(F)(F)C(F)(F)C(F)(F)C(F)(F)C(F)(F)C(F)(F)F` [compound 74, Perfluorooctanoic acid]: the concentration at 120 hpf is 76 ± 1.6 µM.

A further data set deals with zebrafish larvae. In words: Identification of taurine conjugates by the DIPIC-Frag method in zebrafish larvae. It is filed as in vivo, Danio rerio. The note with it: among 74 PFAS. The source says: To identify the taurine conjugates in zebrafish larvae exposed to PFAS, we used the data-independent precursor isolation and characteristic fragment (DIPIC-Frag) method developed in previous studies ([Peng et al. 2015], [2016]) to enhance the coverage inspired by the detection of the characteristic fragment from taurine conjugates ( [taurine-H]^− , m/z 124.0063). Then, the taurine fragment peak was extracted from each AIF window across all 243 raw MS data. Once the taurine fragment peak was detected, corresponding precursor ions were identified from the same window and sample by aligning their chromatographic peaks. The precursor ions were further confirmed by their co-occurrences with the taurine fragment across samples. Once precursor ions were identified, the compound formulas and structures were predicted by interpreting high-resolution MS and MS/MS spectra, as mentioned above.
With `O=C(O)CCC(F)(F)C(F)(F)C(F)(F)C(F)(F)C(F)(F)F` [compound 14, 2H,2H,3H,3H-Perfluorooctanoic acid], the Taurine conjugates detected entry is “taurine conjugates were detected”.

A further data set has as its system soil microcosms.
Assay: not given
The note with it: ref Mejia-Avendaño et al. 2016; cited from earlier work. Also on record: method as in Mejia-Avendaño et al. 2016.
`C[N+](C)(C)CCCNS(=O)(=O)C(F)(F)C(F)(F)C(F)(F)C(F)(F)C(F)(F)C(F)(F)C(F)(F)C(F)(F)F` [compound 5, Perfluorooctanesulfonamido ammonium iodide]: the “Half-life, biodegradation by soil microcosms” value was 142 days.

Another data set has as its system zebrafish larvae. In words: Nontargeted analysis of PFAS metabolites in zebrafish larvae (high-resolution MS). The note with it: zebrafish larvae exposed to 5μM. The protocol:
Zebrafish embryos were collected immediately after spawning, within 1 h, and subsequently transferred to 24-well plates with 1mL of facility water ( 0.036g sea salt, 0.15g sodium bicarbonate in 2L of reverse osmosis water). […] Three well replicates on the same plate were conducted for each concentration of individual chemical. […] Seven batches of experiments were performed to test all 74 PFAS. DMSO controls were incorporated in each batch of exposure experiments. Three replicates were performed for each treatment group, and 20 embryos were used for each replicate. […] For daily replenishment, 2.5mL of old exposure medium were replaced with freshly prepared medium every 24 h from 24 to 96 h post fertilization (hpf). Hatched or dead embryo numbers were recorded every 24 hpf, after which dead embryos were discarded from the growth media. Dead embryos or unhatched embryos were not used for PFAS measurement because the metabolism of PFAS might have been impacted. Zebrafish larvae collection occurred at 120 hpf. First, the larvae were anesthetized by cooling the plate in ice water (0–4°C) for ∼20 min . Then 8–15 larvae in each well were transferred into 1.5-mL tubes. Exposure media was carefully removed, and then the larvae were weighed (wet weight) after blotting excess water with a paper towel. […] Samples were stored at −80 °C until further chemical analysis was performed. Survival rate and hatching rate were calculated by summarizing all the documented data from the whole treatment duration. […] The exposure experiment of PFOSA was repeated using the same procedure as described above.
Each sample was spiked with 2μL of 0.2μg/mL mass-labeled PFAS mixture. Following this, 500μL of dichloromethane/methanol (2:1, vol/vol) was added to each sample for PFAS extraction. Larvae were then homogenized via ultrasonic probe, followed by 30 min of shaking and 30 min of sonication. Each sample was centrifuged at 14,000×g for 5 min, after which the supernatant was transferred to new tubes. Extraction was repeated once and the two supernatants were combined, evaporated under nitrogen flow, and reconstituted in 200μL of methanol for MS analysis.
Three microliters of each zebrafish extract was applied to a C18 column ( 1.5μm; 2.1mm×50mm; Thermo Scientific) and analyzed using a Vanquish ultra-HPLC system (Thermo Fisher Scientific) coupled to a Q Exactive high-resolution mass spectrometer (Thermo Fisher Scientific). The sampler and column compartments were maintained at 4°C and 40°C, respectively. The aqueous mobile phase solution (A) consisted of water, whereas the organic mobile phase solution (B) consisted of acetonitrile. […] MS data was acquired in full scan mode (100–1000 m/z, 70,000 mass resolution, 3×10^6 maximum ions collected per 100 ms), and tandem MS (MS/MS) data was recorded by all-ion fragmentation (AIF) mode. Negative and positive ion modes were carried out simultaneously at a 10-min method duration. […] An overview of the analyses conducted on the various PFAS is available in Table S2.
Nontargeted data analysis was accomplished with R scripts that are available on Github (https://github.com/huiUofT/PFASmetabolite). […] The peak features were matched across samples with a mass tolerance of 2.5 ppm and a RT window of 20 s, after RT adjustment. The ratio of abundances of each feature in treatment groups relative to the control group (DMSO) was calculated. The p -values of the difference between two groups were determined by student’s t -tests.
As for `C[N+](C)(C)CCCNS(=O)(=O)C(F)(F)C(F)(F)C(F)(F)C(F)(F)C(F)(F)C(F)(F)C(F)(F)C(F)(F)F` [compound 5, Perfluorooctanesulfonamido ammonium iodide], the “Metabolite peak features detected” value came out at 74.
